Results reported in ChEMBL document CHEMBL4680201, “Design, synthesis, and pharmacological evaluation of 4- or 6-phenyl-pyrimidine derivatives as novel and selective Janus kinase 3 inhibitors” (Eur J Med Chem, 2020).
Activity calls are given as the source filed them. The calls are words filed in the database; no cut-off is given here.

Key:
[1] = target: T1, Tyrosine-protein kinase JAK3 (Homo sapiens, UniProt P52333)
T1 sequence (P52333 whole entry): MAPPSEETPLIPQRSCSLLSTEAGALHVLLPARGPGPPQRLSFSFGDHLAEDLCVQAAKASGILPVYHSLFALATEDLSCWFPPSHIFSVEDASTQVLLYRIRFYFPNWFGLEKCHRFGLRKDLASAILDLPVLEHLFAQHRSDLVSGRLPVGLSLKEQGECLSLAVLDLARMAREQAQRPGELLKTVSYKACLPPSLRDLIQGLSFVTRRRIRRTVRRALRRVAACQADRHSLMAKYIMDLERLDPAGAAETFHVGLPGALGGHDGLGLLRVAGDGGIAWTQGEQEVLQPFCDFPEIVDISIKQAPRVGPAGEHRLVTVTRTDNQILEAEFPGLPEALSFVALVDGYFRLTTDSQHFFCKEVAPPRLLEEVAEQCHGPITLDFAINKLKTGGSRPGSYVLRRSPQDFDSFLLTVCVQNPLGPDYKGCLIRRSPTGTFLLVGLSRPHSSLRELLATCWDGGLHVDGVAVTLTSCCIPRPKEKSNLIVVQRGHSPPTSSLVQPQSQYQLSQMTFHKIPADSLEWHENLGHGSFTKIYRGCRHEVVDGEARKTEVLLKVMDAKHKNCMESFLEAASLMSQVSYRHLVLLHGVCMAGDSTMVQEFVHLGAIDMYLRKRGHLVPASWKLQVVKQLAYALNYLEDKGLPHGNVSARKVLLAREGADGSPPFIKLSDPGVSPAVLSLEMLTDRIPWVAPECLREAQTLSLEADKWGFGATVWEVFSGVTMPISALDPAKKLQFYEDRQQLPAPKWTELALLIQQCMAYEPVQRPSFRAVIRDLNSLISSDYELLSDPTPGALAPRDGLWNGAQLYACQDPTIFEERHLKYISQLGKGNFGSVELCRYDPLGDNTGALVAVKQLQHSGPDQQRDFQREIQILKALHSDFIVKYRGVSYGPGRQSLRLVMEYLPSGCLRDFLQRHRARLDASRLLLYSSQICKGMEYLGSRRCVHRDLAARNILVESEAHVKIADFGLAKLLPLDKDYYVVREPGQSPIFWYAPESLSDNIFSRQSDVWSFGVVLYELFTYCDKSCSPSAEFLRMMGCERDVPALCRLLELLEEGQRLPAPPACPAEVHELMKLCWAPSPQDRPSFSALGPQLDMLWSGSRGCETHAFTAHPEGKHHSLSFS

[2] = Cytotoxicity against IL-4-treated mouse T cells assessed as reduction in cell viability at 10 uM measured after 72 hrs by MTS assay; assay type: cell-based
[3] = target: T2, Tyrosine-protein kinase JAK3 (Mus musculus) (UniProt Q62137); test: Inhibition of JAK3 in anti-CD3/-CD28 coated mouse T cells assessed as reduction in IL2-induced STAT5 phosphorylation at 10 uM preincubated for 1 hr followed by IL2 stimulation and measured after 30 mins by Western blot analysis; conditions: T cell
T2 sequence (whole entry): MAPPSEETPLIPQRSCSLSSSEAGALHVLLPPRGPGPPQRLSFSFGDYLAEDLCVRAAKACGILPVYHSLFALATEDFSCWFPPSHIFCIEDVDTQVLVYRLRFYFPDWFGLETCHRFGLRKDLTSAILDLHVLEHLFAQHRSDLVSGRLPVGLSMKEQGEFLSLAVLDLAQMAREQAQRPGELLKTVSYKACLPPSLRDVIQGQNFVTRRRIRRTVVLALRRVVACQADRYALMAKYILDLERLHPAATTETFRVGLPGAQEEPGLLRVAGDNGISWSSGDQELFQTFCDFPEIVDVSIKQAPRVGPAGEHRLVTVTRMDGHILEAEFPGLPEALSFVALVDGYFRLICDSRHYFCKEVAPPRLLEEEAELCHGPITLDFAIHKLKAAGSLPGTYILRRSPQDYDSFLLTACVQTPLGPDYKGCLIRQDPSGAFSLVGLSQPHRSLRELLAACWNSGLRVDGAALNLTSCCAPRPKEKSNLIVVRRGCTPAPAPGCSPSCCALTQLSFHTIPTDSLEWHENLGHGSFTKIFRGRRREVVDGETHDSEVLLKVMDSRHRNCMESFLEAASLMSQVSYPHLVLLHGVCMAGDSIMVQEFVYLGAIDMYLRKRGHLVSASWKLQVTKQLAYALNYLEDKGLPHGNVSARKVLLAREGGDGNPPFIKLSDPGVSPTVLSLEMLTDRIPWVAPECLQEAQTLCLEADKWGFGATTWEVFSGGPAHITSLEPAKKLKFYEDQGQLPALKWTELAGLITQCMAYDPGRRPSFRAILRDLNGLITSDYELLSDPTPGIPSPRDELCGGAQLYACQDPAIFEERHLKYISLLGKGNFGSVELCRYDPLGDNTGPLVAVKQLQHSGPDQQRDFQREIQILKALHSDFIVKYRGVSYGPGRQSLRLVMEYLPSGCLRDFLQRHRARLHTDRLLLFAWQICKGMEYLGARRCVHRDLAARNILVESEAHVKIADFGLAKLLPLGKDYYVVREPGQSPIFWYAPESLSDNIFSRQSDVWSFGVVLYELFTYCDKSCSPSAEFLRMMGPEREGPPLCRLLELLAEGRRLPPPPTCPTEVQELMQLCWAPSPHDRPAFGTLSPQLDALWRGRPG

[4] = target: BTK (Tyrosine-protein kinase BTK) (Homo sapiens, UniProt Q06187); test: Inhibition of recombinant human His-tagged full length BTK expressed in baculovirus expression system at 100 nM using Tyr01 peptide as substrate incubated for 1 hr by Z'lyte assay relative to control; conditions: probe Tyr01 peptide
[5] = target: RET (Proto-oncogene tyrosine-protein kinase receptor Ret) (Homo sapiens, UniProt P07949); test: Inhibition of recombinant human GST-tagged RET (658 to 1114 residues) expressed in baculovirus expression system at 100 nM using Tyr 02 as substrate incubated for 1 hr in presence of ATP by Z'-LYTE assay relative to control; conditions: probe Tyr 02
[6] = Apparent volume of distribution in ICR mouse at 10 mg/kg, iv administered as single dose by LC-MS/MS analysis; assay type: ADME, organism-based; conditions: in vivo, read-out: Vz
[7] = Terminal half life in ICR mouse at 10 mg/kg, iv administered as single dose by LC-MS/MS analysis; assay type: ADME, organism-based; conditions: in vivo, read-out: beta t1/2 (converted)
[8] = Cmax in ICR mouse at 10 mg/kg, iv administered as single dose by LC-MS/MS analysis; assay type: ADME, organism-based; parameters: route intravenous, dose 10 mg/kg; conditions: in vivo
[9] = Cmax in ICR mouse at 30 mg/kg, po administered as single dose via gavage by LC-MS/MS analysis; assay type: ADME, organism-based; parameters: route oral, dose 30 mg/kg; conditions: in vivo
Mus musculus = test: Immunosuppressive activity in Balb/c mouse model of oxazolone-induced delayed type hypersensitivity assessed as reduction in neutrophil leukocyte infiltration at 30 mg/kg, po measured after 7 days by H and E staining based histopathological analysis; assay type: functional, organism-based; conditions: time 7.0 day
[10] = Toxicity in Balb/c mouse model of oxazolone-induced delayed type hypersensitivity assessed as change in microscopic examination up to 30 mg/kg, po; assay type: organism-based; conditions: in vivo

RET (Proto-oncogene tyrosine-protein kinase receptor Ret), sequence (P07949 whole entry, the tested form may be a part): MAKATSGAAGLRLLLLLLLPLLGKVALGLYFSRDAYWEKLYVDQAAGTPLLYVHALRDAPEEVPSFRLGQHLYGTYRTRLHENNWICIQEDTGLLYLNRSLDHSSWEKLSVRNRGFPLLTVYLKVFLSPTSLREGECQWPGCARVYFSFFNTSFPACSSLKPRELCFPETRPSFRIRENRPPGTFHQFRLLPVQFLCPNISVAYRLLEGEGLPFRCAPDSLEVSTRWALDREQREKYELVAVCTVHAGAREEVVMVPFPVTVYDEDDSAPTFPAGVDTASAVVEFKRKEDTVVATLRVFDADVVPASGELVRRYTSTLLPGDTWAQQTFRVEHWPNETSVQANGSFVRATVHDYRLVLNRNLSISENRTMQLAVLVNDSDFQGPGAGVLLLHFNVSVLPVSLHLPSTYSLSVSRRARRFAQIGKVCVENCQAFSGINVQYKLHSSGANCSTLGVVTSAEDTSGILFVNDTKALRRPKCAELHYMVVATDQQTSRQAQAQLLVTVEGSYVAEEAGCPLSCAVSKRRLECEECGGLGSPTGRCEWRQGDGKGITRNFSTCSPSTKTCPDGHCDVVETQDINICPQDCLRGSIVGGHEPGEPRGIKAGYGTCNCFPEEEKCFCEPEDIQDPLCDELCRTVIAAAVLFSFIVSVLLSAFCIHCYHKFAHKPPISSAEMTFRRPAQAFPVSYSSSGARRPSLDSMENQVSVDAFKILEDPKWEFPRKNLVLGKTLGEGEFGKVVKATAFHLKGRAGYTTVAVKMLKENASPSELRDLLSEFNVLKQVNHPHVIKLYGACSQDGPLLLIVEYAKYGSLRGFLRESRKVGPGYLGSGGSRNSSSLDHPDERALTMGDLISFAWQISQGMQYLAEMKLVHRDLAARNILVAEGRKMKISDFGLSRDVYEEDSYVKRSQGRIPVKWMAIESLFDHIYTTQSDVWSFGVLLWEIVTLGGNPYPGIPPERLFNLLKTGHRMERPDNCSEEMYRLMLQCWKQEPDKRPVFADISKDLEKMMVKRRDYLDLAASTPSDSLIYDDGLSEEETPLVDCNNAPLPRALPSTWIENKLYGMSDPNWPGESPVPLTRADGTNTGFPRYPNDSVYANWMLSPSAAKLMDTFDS
BTK (Tyrosine-protein kinase BTK), sequence (Q06187 whole entry, the tested form may be a part): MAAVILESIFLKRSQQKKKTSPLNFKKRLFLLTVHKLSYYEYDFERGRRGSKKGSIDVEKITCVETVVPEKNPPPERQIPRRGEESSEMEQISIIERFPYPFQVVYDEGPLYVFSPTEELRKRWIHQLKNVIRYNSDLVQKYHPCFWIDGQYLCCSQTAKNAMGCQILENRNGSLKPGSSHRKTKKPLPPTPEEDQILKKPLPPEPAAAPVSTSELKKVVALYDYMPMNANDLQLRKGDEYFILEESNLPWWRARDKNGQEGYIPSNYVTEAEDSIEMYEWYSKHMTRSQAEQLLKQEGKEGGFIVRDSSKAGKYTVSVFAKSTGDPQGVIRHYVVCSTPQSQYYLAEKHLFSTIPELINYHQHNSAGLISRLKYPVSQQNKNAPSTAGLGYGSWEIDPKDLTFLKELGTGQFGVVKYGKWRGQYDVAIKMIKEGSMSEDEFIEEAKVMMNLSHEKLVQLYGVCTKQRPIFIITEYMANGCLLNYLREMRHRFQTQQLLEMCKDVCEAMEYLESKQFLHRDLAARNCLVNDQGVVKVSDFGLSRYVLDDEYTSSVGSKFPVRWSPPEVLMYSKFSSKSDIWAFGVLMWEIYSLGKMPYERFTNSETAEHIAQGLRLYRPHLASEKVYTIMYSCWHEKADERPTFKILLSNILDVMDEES

With C=CC(=O)Nc1ccc(-c2ccnc(Nc3ccc(N4CCOCC4)cc3)n2)cc1 the IC50 [1] was 1.7 nM, the Activity [2] was “Non-Toxic” and the inhibition [3] was “Active”. The inhibition at 1 h, 0.1 µM [4] was 6.3%, the inhibition at 1 h, 0.1 µM [5] was 2.9% and the Vd [6] was 8.36 L/kg. The half-life [7] was 28.2 min, the Cmax [8] was 8760 ng/mL and the Cmax [9] was 2010 ng/mL. For the same molecule, the Activity (Mus musculus) was “Active” and the Activity [10] was “Non-Toxic”.
